Assays:
Type in all cases: biochemical, Neurospora crassa
Head1/Neck3 = system: T1, Head1/Neck3; assay: coupled enzymatic steady-state ATPase assay; conditions: microtubule-activated (pig brain tubulin), 12.5 mM Aces-KOH, 25 mM potassium acetate, 5 mM MgCl2, EGTA, pH 6.8, 22°C; read-out: Steady state ATPase / KM,ATP
T1 construct: gene NcKin; fusion in one polypeptide: NcKin residues 1-342 (motor and neck-linker) replacing the N-terminal 427 residues of NcKin3_558; C-terminal PSIVHRKCF (cys) or hTail; dimer; with Kinesin-3 motor protein NcKin3
Description: coupled enzymatic steady-state ATPase assay on Head1/Neck3

Head3/Neck1 [1] = system: T2, Head3/Neck1; assay: coupled enzymatic steady-state ATPase assay; conditions: microtubule-activated (pig brain tubulin), 12.5 mM Aces-KOH, 25 mM potassium acetate, 5 mM MgCl2, EGTA, pH 6.8, 22°C; read-out: Steady state ATPase / KM,ATP
T2 construct: gene NcKin3; fusion in one polypeptide: NcKin3 residues 1-429 (motor and neck-linker) replacing the head of NcKin436 (NcKin head elsewhere 1-342); C-terminal PSIVHRKCF (cys) or hTail; dimer; with Kinesin heavy chain
Description: coupled enzymatic steady-state ATPase assay on Head3/Neck1

Head3/Neck1 [2] = system: T2, Head3/Neck1; assay: stopped-flow light scattering, ATP-induced microtubule detachment; conditions: dissociation of preformed apyrase-treated kinesin-microtubule complex, 0.4 µM complex, 0-1000 µM ATP; read-out: Detachment / K0.5,ATP
Description: stopped-flow light scattering, ATP-induced microtubule detachment on Head3/Neck1

[3] = substrate: Nc1ncnc2c1ncn2[C@@H]1O[C@H](COP(=O)(O)OP(=O)(O)OP(=O)(O)O)[C@@H](O)[C@H]1O; assay: coupled enzymatic steady-state ATPase assay; conditions: microtubule-activated (pig brain tubulin), 12.5 mM Aces-KOH, 25 mM potassium acetate, 5 mM MgCl2, EGTA, pH 6.8, 22°C
Description: coupled enzymatic steady-state ATPase assay on NcKin (NcKin436; wildtype reference)

Molecule | Km (Head1/Neck3) [µM] | Km (Head3/Neck1 [1]) [µM] | Km (Head3/Neck1 [2]) [µM] | Km [3] [µM] | kcat [3] [s⁻¹]
Nc1ncnc2c1ncn2[C@@H]1O[C@H](COP(=O)(O)OP(=O)(O)OP(=O)(O)O)[C@@H](O)[C@H]1O [ATP] | 33.1 ± 4.6 | 49.1 ± 1.3 | 105 ± 26.6 | – | –
NcKin (NcKin436; wildtype reference) (Neurospora crassa OR74A) (protein, C-terminally truncated NcKin436 (motor, neck-linker, neck coiled coil, partial stalk), expressed from pT7 vector; C-terminal reactive-cysteine peptide … or hTail; dimer) MSSSANSIKVVARFRPQNRVEIESGGQPIVTFQGPDTCTVDSKEAQGSFTFDRVFDMSCKQSDIFDFSIKPTVDDILNGYNGTVFAYGQTGAGKSYTMMGTSIDDPDGRGVIPRIVEQIFTSILSSAANIEYTVRVSYMEIYMERIRDLLAPQNDNLPVHEEKNRGVYVKGLLEIYVSSVQEVYEVMRRGGNARAVAATNMNQESSRSHSIFVITITQKNVETGSAKSGQLFLVDLAGSEKVGKTGASGQTLEEAKKINKSLSALGMVINALTDGKSSHVPYRDSKLTRILQESLGGNSRTTLIINCSPSSYNDAETLSTLRFGMRAKSIKNKAKVNAELSPAELKQMLAKAKTQITSFENYIVNLESEVQVWRGGETVPKEKWVPPLELAITPSKSASTTARPSTPSRLLPESRAETPAISDRAGTPSLPLDKDE | – | – | – | 64.5 ± 20.4 | 66.9 ± 18.1

From PMC2644789, “Dissection of Kinesin's Processivity” (PLoS ONE, 2009)
